According to patent US8426429B2, “2-amino-quinazoline derivatives useful as inhibitors of β-secretase (BACE)” (Jansssen Pharmaceutica N.V., priority 2004, dated 2013):

Biological target: T1, β-secretase (BACE) (Homo sapiens, UniProt P56817)
T1 construct: purchased Panvera
Experiment: BACE FS1 % Inhibition Assay
Format: biochemical
Procedure, shortened: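 Percent inhibition per compound concentration was referenced to vehicle-treated enzyme and no-enzyme wells. Enzyme at a 4 μg/mL working stock plus compound was mixed for 20 min at room temperature before the FS1 substrate (300 μg/mL working stock) was added for a 1 h room-temperature reaction.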

T1 sequence (P56817 46-501): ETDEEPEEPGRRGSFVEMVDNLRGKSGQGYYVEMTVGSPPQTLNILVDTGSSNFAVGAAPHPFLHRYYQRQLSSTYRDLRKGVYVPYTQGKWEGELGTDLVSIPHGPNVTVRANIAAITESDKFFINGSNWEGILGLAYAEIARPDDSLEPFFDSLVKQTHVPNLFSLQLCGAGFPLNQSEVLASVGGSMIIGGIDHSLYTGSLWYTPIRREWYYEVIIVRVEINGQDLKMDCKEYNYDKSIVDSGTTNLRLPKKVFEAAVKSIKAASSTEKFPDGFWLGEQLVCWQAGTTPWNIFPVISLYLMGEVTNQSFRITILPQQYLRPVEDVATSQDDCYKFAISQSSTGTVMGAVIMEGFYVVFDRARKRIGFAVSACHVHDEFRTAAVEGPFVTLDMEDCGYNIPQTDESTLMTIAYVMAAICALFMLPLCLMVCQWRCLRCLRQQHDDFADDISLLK

**Q.** `CN(C(=O)CCC(C1CCCCC1)N1Cc2cc(Oc3ccccc3)ccc2N=C1N)C1CCC(c2nn[nH]n2)CC1` (stereo not drawn) [Compound 770] was tested. Which “% Inhibition (FS)” value (0.3 μM compound, FS1 substrate) did it give?
**A.** <30%

**Q.** What about the “% Inhibition (FS)” value (1 μM compound, FS1 substrate) of the same compound?
**A.** <30%

**Q.** And the “% Inhibition (FS)” value (3 μM compound, FS1 substrate)?
**A.** <30%

**Q.** How did the “% Inhibition (FS)” value (0.3 μM compound, FS1 substrate) turn out when `NC1=Nc2ccc(-c3ccccc3)cc2CN1CCNC(=O)CCC(F)(F)F` [Compound 684] was run?
**A.** 33%

**Q.** And the “% Inhibition (FS)” value (1 μM compound, FS1 substrate)?
**A.** 38%

**Q.** What about the “% Inhibition (FS)” value (3 μM compound, FS1 substrate) of the same compound?
**A.** 78%

**Q.** Which results are given for `CN(C(=O)c1cccc(CN2Cc3cc(-c4ccc(C5CCCCC5)cc4)ccc3N=C2N)c1)C1CCCCC1` [Compound 267]?
**A.** % Inhibition (FS) (0.3 μM test compound): <30%; % Inhibition (FS) (1 μM test compound): 39%; % Inhibition (FS) (3 μM test compound): 38%

**Q.** Which results are given for `NC1=Nc2ccc(Oc3ccccc3)cc2CN1CCCCNC(=O)C1CCCCC1` [Compound 115]?
**A.** % Inhibition (FS) (3 μM test compound): 40%; % Inhibition (FS) (10 μM test compound): 105%

**Q.** What does the source list for `CCCC=Cc1ccc2c(c1)CN(CCNC(=O)c1ccc(NC(C)=O)cc1)C(N)=N2` [Compound 592]?
**A.** % Inhibition (FS) (0.3 μM test compound): <30%; % Inhibition (FS) (1 μM test compound): <30%; % Inhibition (FS) (3 μM test compound): <30%

**Q.** What does the source list for `CN(C)c1ccc(Nc2ccc3c(c2)CN(Cc2cccc(C(=O)N(C)C4CCCCC4)c2)C(N)=N3)cc1` [Compound 438]?
**A.** % Inhibition (FS) (0.3 μM test compound): <30%; % Inhibition (FS) (1 μM test compound): <30%; % Inhibition (FS) (3 μM test compound): <30%

**Q.** Which “% Inhibition (FS)” value (3 μM test compound) does the source give for `NC1=Nc2ccc(Oc3ccccc3)cc2CN1CCCCNC(=O)C1CCCC1` [Compound 116] here?
**A.** 39%

**Q.** What about the “% Inhibition (FS)” value (10 μM test compound) of the same compound?
**A.** 81%

**Q.** For `COc1cccc(Nc2ccc3c(c2)CN(Cc2cccc(C(=O)N(C)C4CCCCC4)c2)C(N)=N3)c1` [Compound 433], which “% Inhibition (FS)” value (0.3 μM test compound) is on record?
**A.** <30%

**Q.** What about the “% Inhibition (FS)” value (1 μM test compound) of the same compound?
**A.** 33%

**Q.** And the “% Inhibition (FS)” value (3 μM test compound)?
**A.** 88%

**Q.** How did the “% Inhibition (FS)” value (0.3 μM compound, FS1 substrate) turn out when `NC1=Nc2ccc(-c3cnc4ccccc4c3)cc2CN1CCNC(=O)C12CC3CC(CC(C3)C1)C2` [Compound 672] was run?
**A.** <30%

**Q.** What about the “% Inhibition (FS)” value (1 μM compound, FS1 substrate) of the same compound?
**A.** <30%

**Q.** What about the “% Inhibition (FS)” value (3 μM compound, FS1 substrate) of the same compound?
**A.** <30%

**Q.** Which results are given for `NC1=Nc2ccc(-c3cccc(C(F)(F)F)c3)cc2CN1CCNC(=O)CC1CCCC1` [Compound 584]?
**A.** % Inhibition (FS) (0.3 μM test compound): <30%; % Inhibition (FS) (1 μM test compound): <30%; % Inhibition (FS) (3 μM test compound): 56%

**Q.** How did the “% Inhibition (FS)” value (0.3 μM test compound) turn out when `CN(C(=O)c1cccc(CN2Cc3cc(Oc4ccccc4CC(N)=O)ccc3N=C2N)c1)C1CCCCC1` [Compound 235] was run?
**A.** <30%

**Q.** And the “% Inhibition (FS)” value (1 μM test compound)?
**A.** 46%

**Q.** What about the “% Inhibition (FS)” value (3 μM test compound) of the same compound?
**A.** <30%

**Q.** For `Cc1ccccc1-c1ccc2c(c1)CN(CCNC(=O)C1CCC(C(F)(F)F)CC1)C(N)=N2` (stereo not drawn) [Compound 694], which “% Inhibition (FS)” value (0.3 μM compound, FS1 substrate) is on record?
**A.** <30%

**Q.** And the “% Inhibition (FS)” value (1 μM compound, FS1 substrate)?
**A.** <30%

**Q.** And the “% Inhibition (FS)” value (3 μM compound, FS1 substrate)?
**A.** 84%

**Q.** How did the “% Inhibition (FS)” value (0.3 μM test compound) turn out when `CC(C)(C)OC(=O)NCC(c1ccccc1)N1Cc2cc(Oc3ccccc3)ccc2N=C1N` (stereo not drawn) [Compound 258] was run?
**A.** <30%

**Q.** What about the “% Inhibition (FS)” value (1 μM test compound) of the same compound?
**A.** 46%

**Q.** What about the “% Inhibition (FS)” value (3 μM test compound) of the same compound?
**A.** 72%

**Q.** With `CCCCC(CC)C(=O)NCC(C1CCCCC1)N1Cc2cc(Oc3ccccc3)ccc2N=C1N` (stereo not drawn) [Compound 303] as the compound, how does the “% Inhibition (FS)” value (0.3 μM test compound) read?
**A.** <30%

**Q.** What about the “% Inhibition (FS)” value (1 μM test compound) of the same compound?
**A.** 70%

**Q.** And the “% Inhibition (FS)” value (3 μM test compound)?
**A.** 109%

**Q.** How did the “% Inhibition (FS)” value (0.3 μM test compound) turn out when `CC1CCC(N(C(=O)c2cccc(CN3Cc4cc(Oc5ccccc5)ccc4N=C3N)c2)C2CCC(C)CC2)CC1` (stereo not drawn) [Compound 187] was run?
**A.** <30%

**Q.** What about the “% Inhibition (FS)” value (1 μM test compound) of the same compound?
**A.** <30%

**Q.** What about the “% Inhibition (FS)” value (3 μM test compound) of the same compound?
**A.** 39%

**Q.** Which results are given for `CC(C)(C)C(=O)NCCN1Cc2cc(-c3ccc4ccccc4c3)ccc2N=C1N` [Compound 667]?
**A.** % Inhibition (FS) (0.3 μM compound, FS1 substrate): 33%; % Inhibition (FS) (1 μM compound, FS1 substrate): <30%; % Inhibition (FS) (3 μM compound, FS1 substrate): <30%

**Q.** `COC(=O)Cc1cccc(CN(C)C(=O)CCC(C2CCCCC2)N2Cc3cc(Oc4ccccc4)ccc3N=C2N)c1` (stereo not drawn) [Compound 775] was tested. Which “% Inhibition (FS)” value (0.3 μM compound, FS1 substrate) did it give?
**A.** <30%

**Q.** What about the “% Inhibition (FS)” value (1 μM compound, FS1 substrate) of the same compound?
**A.** 62%

**Q.** Which results are given for `CCCC(CCC)C(=O)N1CCC(N2Cc3cc(Oc4ccccc4)ccc3N=C2N)CC1` [Compound 523]?
**A.** % Inhibition (FS) (0.3 μM test compound): <30%; % Inhibition (FS) (1 μM test compound): <30%; % Inhibition (FS) (3 μM test compound): 58%

**Q.** `CN(C(=O)CCC(c1ccc(-c2ccccc2)cc1)N1Cc2cc(Oc3ccccc3)ccc2N=C1N)C1CCCCC1` (stereo not drawn) [Compound 420] was tested. Which “% Inhibition (FS)” value (0.3 μM test compound) did it give?
**A.** <30%

**Q.** What about the “% Inhibition (FS)” value (1 μM test compound) of the same compound?
**A.** <30%

**Q.** And the “% Inhibition (FS)” value (3 μM test compound)?
**A.** 53%

**Q.** For `CC(=O)Nc1ccc(C(=O)NCCN2Cc3cc(-c4ccccc4)ccc3N=C2N)cc1` [Compound 591], which “% Inhibition (FS)” value (0.3 μM test compound) is on record?
**A.** <30%

**Q.** And the “% Inhibition (FS)” value (1 μM test compound)?
**A.** <30%

**Q.** What about the “% Inhibition (FS)” value (3 μM test compound) of the same compound?
**A.** <30%

**Q.** `NC1=Nc2ccc(-c3ccccc3Cl)cc2CN1CCNC(=O)CCC(F)(F)F` [Compound 682] was tested. Which “% Inhibition (FS)” value (0.3 μM compound, FS1 substrate) did it give?
**A.** 39%

**Q.** And the “% Inhibition (FS)” value (1 μM compound, FS1 substrate)?
**A.** 77%

**Q.** And the “% Inhibition (FS)” value (3 μM compound, FS1 substrate)?
**A.** 97%

**Q.** With `CC1CCCCN1C(=O)CCCC(CCC(=O)N1CCCCC1C)N1Cc2cc(Oc3ccccc3)ccc2N=C1N` (stereo not drawn) [Compound 504] as the compound, how does the “% Inhibition (FS)” value (0.3 μM test compound) read?
**A.** <30%

**Q.** And the “% Inhibition (FS)” value (1 μM test compound)?
**A.** 31%

**Q.** What about the “% Inhibition (FS)” value (3 μM test compound) of the same compound?
**A.** 96%

**Q.** Which results are given for `CN(C(=O)c1cccc(CN2Cc3cc(C=Cc4ccccc4)ccc3N=C2N)c1)C1CCCCC1` [Compound 266]?
**A.** % Inhibition (FS) (0.3 μM test compound): <30%; % Inhibition (FS) (1 μM test compound): 34%; % Inhibition (FS) (3 μM test compound): <30%

**Q.** How did the “% Inhibition (FS)” value (0.3 μM test compound) turn out when `CC(C)(C)NS(=O)(=O)c1ccccc1-c1ccc2c(c1)CN(CCNC(=O)C1CCCCC1)C(N)=N2` [Compound 542] was run?
**A.** <30%

**Q.** And the “% Inhibition (FS)” value (1 μM test compound)?
**A.** <30%

**Q.** What about the “% Inhibition (FS)” value (3 μM test compound) of the same compound?
**A.** 73%

**Q.** For `CC(=O)Nc1cccc(Oc2ccc3c(c2)CN(Cc2cccc(C(=O)N(C)C4CCCCC4)c2)C(N)=N3)c1` [Compound 229], which “% Inhibition (FS)” value (0.3 μM test compound) is on record?
**A.** <30%

**Q.** And the “% Inhibition (FS)” value (1 μM test compound)?
**A.** 35%

**Q.** What about the “% Inhibition (FS)” value (3 μM test compound) of the same compound?
**A.** <30%
